The values that follow are results of earlier work, collected in patent US20210386729A1, “METHODS FOR TREATING LIVER DISORDERS USING FXR AGONISTS” (NOVARTIS AG, priority 2016, published 2021).

The conditions of this data set: clinical studies, PBC or NASH subjects; cited from earlier work.

Take `CC[C@H]1[C@@H](O)[C@@H]2[C@H](CC[C@]3(C)[C@@H]([C@H](C)CCC(=O)O)CC[C@@H]23)[C@@]2(C)CC[C@@H](O)C[C@@H]12` [OCA, 6α-ethyl-chenodeoxycholic acid]: the pruritus entry was “may be associated with increased pruritus”.
